Reference: publication PMC4850295, “Using a Genetically Encoded Sensor to Identify Inhibitors of Toxoplasma gondii Ca^2+ Signaling” (The Journal of Biological Chemistry, 2016)
“And” between values parts separate entries of the source, which are not always exact repeats. Equal values may be shown once.

Each compound was assayed on T1, GCaMP5-expressing T. gondii. Details: 100 uM zaprinast stimulation, 10 min pretreatment, mean of two replicates, 0.23 h, 10 µM.
T1 construct: whole extracellular parasites expressing GCaMP5 Ca2+ sensor
Set-up: species or system GCaMP5-expressing Toxoplasma gondii, extracellular; GCaMP5 fluorescence (cytosolic Ca2+) after 100 uM zaprinast in compound-pretreated extracellular parasites, background-subtracted, relative to zaprinast alone
Procedure, shortened: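 Extracellular GCaMP5-expressing parasites in Ringer's solution were pretreated with compounds (single 10 μM dose, two biological replicates) for 10 min, then stimulated with 100 μM zaprinast at 37 °C for 4 min. Fluorescence read at 485/525 nm, basal subtracted, expressed as fold change relative to zaprinast-only parasites.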

Row | SMILES | fold change in fluorescence relative to zaprinast alone
1 | NS(=O)(=O)c1cccc(Nc2cc(-c3ccc(F)cc3)n[nH]2)c1 [GW824645A] | 1.167 and 1.492

Same assay, conditions: 100 uM zaprinast stimulation; 10 min pretreatment; mean of two replicates; 0.23 h

Row | SMILES | fold change in fluorescence relative to zaprinast alone
2 | COc1cccc(COc2cc(-n3cnc4ccccc43)sc2C(N)=O)c1 [GW804482X] | 1.105
3 | CC(C)c1ccc(Nc2nccc(-c3cnn4ncccc34)n2)cc1 [GW805758X] | 0.2516
4 | c1cnn2ncc(-c3ccnc(Nc4ccc5c(c4)OCCO5)n3)c2c1 [GW806290X] | -0.04929
5 | CN(c1ccc(NC(=O)Nc2ccc(OC(F)(F)F)cc2)cc1)c1ccnc(Nc2cccc(S(N)(=O)=O)c2)n1 [GW806742X] | 0.4394
6 | CCOc1ccc2c(-c3ccnc(Nc4cc(OC)cc(C(F)(F)F)c4)n3)cnn2n1 [GW807982X] | 0.9255
7 | COc1cccc(-n2nc(C)c3c(N/N=C(\C)c4ccncc4)ncnc32)c1 [GW809885X] | 1.233
8 | CN(c1ccc(NC(=O)Nc2cc(C(F)(F)F)ccc2F)cc1)c1ccnc(Nc2ccc(S(N)(=O)=O)cc2)n1 [GW809893X] | 0.2843
9 | CN(c1ccc(NC(=O)Nc2c(Cl)cccc2Cl)cc1)c1ccnc(Nc2cccc(CS(C)(=O)=O)c2)n1 [GW809897X] | 1.103
10 | CN(C(=O)c1ccc(-c2cc(-c3cn[nH]c3-c3ccccn3)ccn2)cc1)C1CCOCC1 [GW810083X] | 1.114
11 | COc1ccc2c(-c3ccnc(Nc4cccc(OC(F)(F)F)c4)n3)cnn2n1 [GW810372X] | 0.1756
12 | COc1ccc(NC(=O)c2ccoc2)cc1-c1ccc(C(=O)NCC2CC2)cc1 [GW810437X] | 1.267
13 | O=C(NCC1CC1)c1ccc(-c2cc(C(=O)NC3CC3)ccc2F)cc1 [GW810445X] | 1.232
14 | FC(F)(F)c1cc(Br)cc(Nc2nccc(-c3cnn4ncccc34)n2)c1 [GW810578X] | 0.9472
15 | COc1cccc(-n2ncc3c(N/N=C/c4ccc(S(C)(=O)=O)cc4)ncnc32)c1 [GW811168X] | 0.6755
16 | CN(c1ccc2c(c1)nc(NCc1ccccc1)n2C)c1ccnc(Nc2ccc(CS(C)(=O)=O)cc2)n1 [GW811603A] | 1.239
17 | CCOc1ccc2c(-c3ccnc(Nc4cccc(C(F)(F)F)c4)n3)cnn2n1 [GW811761X] | 1.047
18 | O=C(c1ccc(-c2cc(-c3cn[nH]c3-c3ccccn3)ccn2)cc1)N1CCOCC1 [GW812171X] | 1.17
19 | CN(c1ccc2c(c1)nc(NCc1ccc(F)cc1)n2C)c1ccnc(Nc2ccc(CS(C)(=O)=O)cc2)n1 [GW813244A] | 1.154
20 | COc1cccc(-n2cnc3c(N/N=C/c4ccncc4)ncnc32)c1 [GW813360X] | 1.13
21 | COc1cccc(-c2c[nH]c3c(N/N=C/c4ccncc4)ncnc23)c1 [GW814408X] | 0.6391
22 | COc1cccc(-n2ncc3c(N/N=C/c4cccc(F)c4)ncnc32)c1 [GW817394X] | 1.201
23 | COc1cccc(-n2ncc3c(N/N=C/c4ccc(F)cc4)ncnc32)c1 [GW817396X] | 1.185

Row | SMILES | fold change in fluorescence relative to zaprinast alone
24 | CCCNC(=O)Nc1ccc(N(C)c2ccnc(NC3CC3)n2)cc1 [GW818933X] | 0.4908
25 | c1ccc(-c2ccc3c(-c4ccnc(Nc5ccc6c(c5)OCCO6)n4)cnn3n2)cc1 [GW818941X] | 0.7769
26 | FC(F)(F)c1cccc(Nc2nccc(-c3cnn4nc(-c5ccccc5)ccc34)n2)c1 [GW819077X] | 0.1467
27 | Cc1ccc(-c2cc3c(NC(=O)C4CC4)ncnc3o2)cc1 [GW819230X] | 1.19
28 | Cc1ccc2c(-c3ccnc(Nc4ccc(C(F)(F)F)cc4)n3)cnn2n1 [GW819776X] | 1.244
29 | Cc1ccc(C(=O)NC2CC2)cc1-c1ccc2[nH]ncc2c1 [GW820759X] | 1.265
30 | O=C(NCc1cccs1)c1cc(C(=O)c2c(Cl)cccc2Cl)c[nH]1 [GW823670X] | 1.033
31 | COc1ccc(-c2nn3ncccc3c2-c2ccnc(Nc3cccc(C(F)(F)F)c3)n2)cc1 [GW827105X] | 0.7957
32 | COc1ccc(-c2nn3ncccc3c2-c2ccnc(Nc3ccc4c(c3)OCCO4)n2)cc1 [GW827106X] | 0.9888
33 | CN1CCN(Cc2ccc(NC(=O)Nc3ccc(N(C)c4ccnc(Nc5ccc(CS(C)(=O)=O)cc5)n4)cc3)cc2)CC1 [GW827654A] | 1.248
34 | FC(F)(F)c1ccc(-c2nn3ncccc3c2-c2ccnc(Nc3cccc(C(F)(F)F)c3)n2)cc1 [GW828205X] | 0.4128
35 | FC(F)(F)c1ccc(-c2nn3ncccc3c2-c2ccnc(Nc3ccccc3)n2)cc1 [GW828206X] | 0.303
36 | Clc1ccc(-c2nn3ncccc3c2-c2ccnc(Nc3ccccc3)n2)cc1 [GW829055X] | 1.188
37 | Fc1ccc(Nc2nccc(-c3c(-c4ccc(Cl)cc4)nn4ncccc34)n2)cc1F [GW829058X] | 1.046
38 | Clc1ccc(-c2nn3ncccc3c2-c2ccnc(Nc3ccc4c(c3)OCCO4)n2)cc1 [GW829116X] | 0.6156
39 | FC(F)(F)c1ccc(-c2nn3ncccc3c2-c2ccnc(Nc3ccc(Cl)c(C(F)(F)F)c3)n2)cc1 [GW829350X] | 0.9679
40 | FC(F)(F)c1cc(Nc2nccc(-c3c(-c4ccc(Cl)cc4)nn4ncccc34)n2)ccc1Cl [GW829351X] | 0.8408
41 | COc1cccc(/C=N/Nc2ncnc3c2cnn3-c2cccc(OC)c2)c1 [GW829874X] | 1.214
42 | COc1cccc(-n2ncc3c(N/N=C/c4ccc(C)cc4)ncnc32)c1 [GW829877X] | 1.18
43 | CN1CCN(C(=O)c2ccc(NC(=O)Nc3ccc(N(C)c4ccnc(Nc5ccc(CS(C)(=O)=O)cc5)n4)cc3)cc2)CC1 [GW830263A] | 1.245
44 | CN(c1ccc(NC(=O)NCCN2CCOCC2)cc1)c1ccnc(Nc2ccc(CS(C)(=O)=O)cc2)n1 [GW830365A] | 1.217
45 | CN(c1ccc(NC(=O)Nc2cccc(Cl)c2)cc1)c1ccnc(N)n1 [GW830707A] | 0.7635

Row | SMILES | fold change in fluorescence relative to zaprinast alone
46 | CN(c1ccc(NC(=O)N2CCN(CCCN3CCOCC3)CC2)cc1)c1ccnc(Nc2ccc(CS(C)(=O)=O)cc2)n1 [GW830899A] | 1.092
47 | CN(C)CCNC(=O)Nc1ccc(N(C)c2ccnc(Nc3ccc(CS(C)(=O)=O)cc3)n2)cc1 [GW830900A] | 1.233
48 | NS(=O)(=O)c1ccc(Nc2cc(-c3cccc(O)c3)n[nH]2)cc1 [GW831090X] | 1.167
49 | NS(=O)(=O)c1ccc(Nc2cc(-c3ccc(O)c(F)c3)n[nH]2)cc1 [GW831091X] | 1.195
50 | Cc1ccc2c(-c3ccnc(Nc4ccc5c(c4)OCCO5)n3)c(-c3ccc(C(F)(F)F)cc3)nn2n1 [GW832467X] | 0.6662
51 | CN(C)CCOc1ccc(-c2cc(-c3cn[nH]c3-c3ccccn3)ccn2)cc1 [GW835314X] | 0.7262
52 | COc1cc(Nc2ncc3c(C)nc(-c4cccc(C(F)(F)F)c4)n3n2)cc(OC)c1OC [GW837331X] | 0.3788
53 | Cc1ccc(-n2nc(C(C)(C)C)cc2NC(=O)Nc2ccc(OCCN3CCOCC3)c3ccccc23)cc1 [GW839464X] | 1.059
54 | COc1cc2ncn(-c3cc(OCc4ccccc4C(F)(F)F)c(C(N)=O)s3)c2cc1OC [GW843682X] | 1.213
55 | NC(=O)c1sc(-n2cnc3ccc(C(F)(F)F)cc32)cc1OCc1ccccc1Br [GW853606X] | 1.175
56 | CC(C)(C)c1ccc2nccc(Nc3cccc(O)c3)c2c1 [GW856795X] | 0.1562
57 | Nc1ncc(-c2cccc(S(N)(=O)=O)c2)c2scc(-c3ccc(F)c(Cl)c3)c12 [GW856804X] | 0.8933
58 | Cc1ccc(O)cc1Nc1ccnc2ccc(C(C)(C)C)cc12 [GW856805X] | 0.3414
59 | COc1cc(Nc2ncc3c(C)nc(-c4cccc(Oc5ccccc5)c4)n3n2)cc(OC)c1OC [GW861893X] | 0.7386
60 | COc1cc(Nc2ncc3c(C)nc(-c4cc5ccccc5[nH]4)n3n2)cc(OC)c1OC [GW869516X] | 0.08874
61 | Cc1cccc(-c2nc(Nc3ccncc3)c3sccc3n2)n1 [GW869641X] | 1.179
62 | O=C(O[C@H]1CN[C@H](C#Cc2cc3ncnc(Nc4ccc(OCc5cccc(F)c5)c(Cl)c4)c3s2)C1)N1CCOCC1 [GW869810X] | 1.08
63 | Clc1cccc(-c2nc(Nc3ccncc3)c3ccccc3n2)c1 [GW873004X] | 1.301
64 | Cc1nc(-c2ccccc2)n2nc(NCCCN3CCOCC3)ncc12 [GW874091X] | 1.267
65 | Cc1cccc(-c2nc(Nc3cccc(C(N)=O)c3)c3ccccc3n2)n1 [GW876019X] | 1.051
66 | Fc1ccc(-c2ncn(CCCN3CCOCC3)c2-c2ccncc2)cc1 [SB-210313] | 1.039
67 | Fc1ccc(-c2ncn(CCCNCc3ccccc3)c2-c2ccncc2)cc1 [SB-210486] | 0.7327
